Measurements as given in PubChem BioAssay (NCI).
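Results reflect a 48-hour exposure of cells in 96-well plates to compound at five concentrations. The concentration for 50% growth inhibition is given as GI50. TGI marks complete inhibition of growth.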

What was measured:
Experiment in all cases: growth of human tumour cells (NCI), 48 h
NCI-H460 lung = system: NCI-H460 lung
OVCAR-8 ovarian = system: OVCAR-8 ovarian
OVCAR-5 ovarian = system: OVCAR-5 ovarian
COLO 205 colon = system: COLO 205 colon
HCT-15 colon = system: HCT-15 colon
HOP-62 NSCLC = system: HOP-62 NSCLC
SK-MEL-2 melanoma = system: SK-MEL-2 melanoma
SNB-75 CNS = system: SNB-75 CNS
NCI-H226 lung = system: NCI-H226 lung
SR leukemia = system: SR leukemia

Compound	TGI (NCI-H460 lung) [µM]	TGI (OVCAR-8 ovarian) [µM]	TGI (OVCAR-5 ovarian) [µM]	TGI (COLO 205 colon) [µM]	GI50 (HCT-15 colon) [µM]	TGI (HCT-15 colon) [µM]	GI50 (HOP-62 NSCLC) [µM]	TGI (HOP-62 NSCLC) [µM]	TGI (SK-MEL-2 melanoma) [µM]	GI50 (SNB-75 CNS) [µM]	TGI (NCI-H226 lung) [µM]	TGI (SR leukemia) [µM]	TGI (SNB-75 CNS) [µM]	GI50 (NCI-H460 lung) [µM]	GI50 (OVCAR-8 ovarian) [µM]	GI50 (SR leukemia) [µM]	GI50 (OVCAR-5 ovarian) [µM]	GI50 (COLO 205 colon) [µM]	GI50 (SK-MEL-2 melanoma) [µM]	GI50 (NCI-H226 lung) [µM]
CCOC(=O)Nc1cc2c(c(N)n1)N=C(c1ccccc1)[C@H](C)N2	0.0464	> 100	53.9	< 0.0001	< 0.0001	17.3	< 0.0001	22.9	13.6	17.9	0.0464	–	–	–	–	–	–	–	–	–
Nc1ccc(N=Nc2ccc(-c3ccc(O)cc3)cc2)c2ccc(S(=O)(=O)O)cc12	> 100	> 100	> 100	> 100	–	> 100	–	> 100	> 100	–	> 100	> 100	> 100	–	–	–	–	–	–	–
COc1cc(N/N=C/C#N)cc(OC)c1OC	> 10	> 10	> 10	> 10	–	> 10	–	> 10	> 10	–	> 10	> 10	> 10	–	–	–	–	–	–	–
O=C(O)NCc1ccccc1 (tested in a mixture with another compound)	> 87.1	> 100	> 100	43.3	–	> 100	–	> 100	33.7	–	> 79.7	12.8	60.6	–	–	–	–	–	–	–
CC(=O)OC/C=C/Cn1ncc(=O)[nH]c1=O	> 100	> 100	> 100	> 100	–	> 100	–	> 100	> 100	–	> 100	–	> 100	–	–	–	–	–	–	–
CCCCCCCCCCCCCCCC(=O)OCC1CCCN2CCCCC12 (centres undefined)	> 100	> 100	> 100	> 100	–	> 100	–	> 100	> 100	–	> 100	–	> 100	–	–	–	–	–	–	–
Oc1c2c(c3c4c1N=CC=4CCN=3)-c1c(Br)cc(Br)cc1CCN2	12	12.1	8.66	2.62	–	15.4	–	29.8	13.5	–	16.8	–	22.6	–	–	–	–	–	–	–
O=[N+]([O-])c1ccc2c(c1)Nc1c3ccccc3nc3cccc-2c13	12.5	40.4	20.5	19.8	–	81.2	–	7.7	39.5	–	> 93.6	8.91	11.7	–	–	–	–	–	–	–
CC(C)OC(=O)C1=C(O)c2ccccc2S(=O)(=O)N1	> 100	> 100	> 100	> 100	–	> 100	–	> 100	> 100	–	> 100	–	> 100	–	–	–	–	–	–	–
Cc1cc2c(cc1C)[n+](=O)c(C#N)c(Cl)n2[O-]	24.2	53.2	25.8	21.7	–	16.7	–	55.7	92.5	–	> 100	> 100	45.2	–	–	–	–	–	–	–
CC[C@H](Nc1nc(N)nc(C)c1C#N)c1nc2cccc(NCc3ccc(C(=O)NO)cc3)c2c(=O)n1-c1ccccc1	4.76	6.83	4.01	5.31	2.29	6.25	2.35	6.22	6.21	0.711	4.13	> 100	3.97	1.85	2.19	0.697	1.49	2.05	2.43	1.61
Cc1ccc([N+](=O)[O-])cc1NC(=O)C(=O)C(C(=O)c1ccccc1F)C1OC(=O)c2ccccc21 (centres undefined)	> 100	90.8	> 100	> 100	–	> 100	–	> 100	> 100	–	69.6	> 100	> 100	–	–	–	–	–	–	–
Cc1ccc(S(=O)(=O)N/N=c2\c(C)c(C3=NS(=O)(=O)c4cc(S(N)(=O)=O)c(Cl)cc4N3)oc3c(Cl)cc(Cl)cc23)cc1	> 100	> 100	> 100	47.8	–	> 100	–	> 100	> 100	–	> 100	> 100	> 100	–	–	–	–	–	–	–
Cc1ccc(C[P+]2(c3ccccc3)CCCCC2)cc1	> 100	> 100	> 100	30.2	–	> 100	–	> 100	80.6	–	> 100	90.9	76.9	–	–	–	–	–	–	–
C=C1CC[C@@H](Br)C(C)(C)[C@]12CCC(C)(O)C(Cl)C2 (some centres undefined)	32.1	37	36.9	29.6	–	30.4	–	49.7	39.7	–	31	–	78.1	–	–	–	–	–	–	–
N=c1nc2n(cc1F)[C@@H]1O[C@H](CO)[C@@H](O)[C@@H]1O2	> 36	> 100	> 100	> 96.9	–	> 100	–	> 100	> 100	–	> 100	> 73.7	> 95	–	–	–	–	–	–	–
CC(=O)O[C@H]1CC[C@@]2(C)C(=CC[C@@H]3[C@@H]2CC[C@]2(C)Nc4c(cnn4S(C)(=O)=O)C[C@@H]32)C1	> 100	> 100	> 100	> 100	–	> 100	–	> 100	> 100	–	> 100	> 100	> 100	–	–	–	–	–	–	–
O=C1Nc2ccccc2S/C1=C\c1cccc(C(F)(F)F)c1	> 100	> 100	> 100	> 100	–	> 100	–	> 100	> 100	–	> 100	> 100	> 100	–	–	–	–	–	–	–
O=C(N/C(=C\c1cccc([N+](=O)[O-])c1)c1nc2[nH]c(=S)[nH]c(=O)c2[nH]1)c1ccccc1	> 100	> 100	> 100	> 100	–	> 100	–	> 100	> 100	–	> 100	> 100	> 100	–	–	–	–	–	–	–
NC(=S)Nc1cc(Cl)ccc1Cl	> 100	> 100	> 100	> 100	–	> 100	–	> 100	> 100	–	> 100	> 100	> 100	–	–	–	–	–	–	–
O=C(O)CCSCc1ccc(I)cc1	> 100	> 100	> 100	> 100	–	> 100	–	> 100	> 100	–	> 100	–	> 100	–	–	–	–	–	–	–
O=C1Nc2ccccc2S/C1=C\c1ccccc1C(F)(F)F	> 100	> 100	> 100	> 100	–	> 100	–	> 100	> 100	–	> 100	> 100	92.3	–	–	–	–	–	–	–
CCC1CN2CCC1CC2 (centres undefined)	> 100	> 100	> 100	> 100	–	> 100	–	> 100	> 100	–	> 100	–	> 100	–	–	–	–	–	–	–
